Test results reported in ChEMBL document CHEMBL1759905, “Nonsteroidal 2,3-dihydroquinoline glucocorticoid receptor agonists with reduced PEPCK activation” (Bioorg Med Chem Lett, 2011).

Key:
[1] = molecular target: T1, Glucocorticoid receptor (Homo sapiens, UniProt P04150); experiment: Displacement of radiolabeled Dexamethasone from glucocorticoid receptor expressed in baculovirus
T1 sequence (P04150 whole entry): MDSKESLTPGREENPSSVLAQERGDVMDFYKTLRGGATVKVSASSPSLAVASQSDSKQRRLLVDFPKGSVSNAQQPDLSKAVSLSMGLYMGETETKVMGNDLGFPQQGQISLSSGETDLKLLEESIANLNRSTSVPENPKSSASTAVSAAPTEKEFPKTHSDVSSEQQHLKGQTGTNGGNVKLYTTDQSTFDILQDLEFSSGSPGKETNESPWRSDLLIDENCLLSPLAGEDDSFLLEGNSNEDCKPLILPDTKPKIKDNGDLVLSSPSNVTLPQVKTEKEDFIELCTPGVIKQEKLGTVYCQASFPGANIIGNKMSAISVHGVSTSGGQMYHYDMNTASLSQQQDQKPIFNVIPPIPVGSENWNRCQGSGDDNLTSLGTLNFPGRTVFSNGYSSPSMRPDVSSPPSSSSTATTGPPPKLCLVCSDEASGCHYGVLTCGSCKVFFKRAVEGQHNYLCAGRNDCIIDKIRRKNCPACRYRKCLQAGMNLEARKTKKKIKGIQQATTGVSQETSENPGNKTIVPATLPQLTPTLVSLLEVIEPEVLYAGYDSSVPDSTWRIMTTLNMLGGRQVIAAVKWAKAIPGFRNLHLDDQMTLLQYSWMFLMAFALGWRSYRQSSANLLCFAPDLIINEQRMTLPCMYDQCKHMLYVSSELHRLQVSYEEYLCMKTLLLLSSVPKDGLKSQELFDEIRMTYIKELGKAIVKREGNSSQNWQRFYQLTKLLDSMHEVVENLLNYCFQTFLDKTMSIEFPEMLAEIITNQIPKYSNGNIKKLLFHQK

[2] = molecular target: T1, Glucocorticoid receptor; experiment: Transrepression activity at glucocorticoid receptor in human HepG2 cells assessed as inhibition of TNFalpha/IL1beta-stimulated NFkappaB-dependent E-selectin repression by luciferase reporter gene assay; assay type: cell-based
[3] = molecular target: T2, Glucocorticoid receptor (Homo sapiens) (UniProt P04150); experiment: Transrepression activity at glucocorticoid receptor in human HepG2 cells assessed as inhibition of TNFalpha/IL1beta-stimulated NFkappaB-dependent E-selectin repression by luciferase reporter gene assay relative to Dexamethasone; assay type: cell-based; parameters: scale not given: the % may be the effect or the level left
T2 sequence (whole entry): T1 sequence (P04150 whole entry)

[4] = molecular target: T2, Glucocorticoid receptor (Homo sapiens); experiment: Agonist activity at glucocorticoid receptor in human HepG2 cells co-transfected with GRE assessed as GRE activation by luciferase reporter gene assay relative to Dexamethasone; assay type: functional, cell-based; parameters: concentration or dose not given beside the values
[5] = molecular target: T2, Glucocorticoid receptor (Homo sapiens); experiment: Transrepression activity at glucocorticoid receptor in human NHDF cells assessed as inhibition of IL-1beta-stimulated AP1 dependent IL-6 repression by ELISA relative to Dexamethasone; assay type: cell-based; parameters: concentration or dose not given beside the values
[6] = molecular target: T2, Glucocorticoid receptor (Homo sapiens); experiment: Agonist activity at glucocorticoid receptor in human HepG2 cells co-transfected with PEPCK assessed as GRE activation by luciferase reporter gene assay relative to Dexamethasone; assay type: functional, cell-based
[7] = molecular target: T1, Glucocorticoid receptor; experiment: Agonist activity at glucocorticoid receptor in human HepG2 cells co-transfected with PEPCK assessed as GRE activation by luciferase reporter gene assay; assay type: functional, cell-based
[8] = molecular target: T1, Glucocorticoid receptor; experiment: Transrepression activity at glucocorticoid receptor in human NHDF cells assessed as inhibition of IL-1beta-stimulated AP1 dependent IL-6 repression by ELISA; assay type: cell-based
[9] = molecular target: T3, Progesterone receptor (Homo sapiens, UniProt P06401); experiment: Binding affinity to progesterone receptor
T3 sequence (P06401 whole entry): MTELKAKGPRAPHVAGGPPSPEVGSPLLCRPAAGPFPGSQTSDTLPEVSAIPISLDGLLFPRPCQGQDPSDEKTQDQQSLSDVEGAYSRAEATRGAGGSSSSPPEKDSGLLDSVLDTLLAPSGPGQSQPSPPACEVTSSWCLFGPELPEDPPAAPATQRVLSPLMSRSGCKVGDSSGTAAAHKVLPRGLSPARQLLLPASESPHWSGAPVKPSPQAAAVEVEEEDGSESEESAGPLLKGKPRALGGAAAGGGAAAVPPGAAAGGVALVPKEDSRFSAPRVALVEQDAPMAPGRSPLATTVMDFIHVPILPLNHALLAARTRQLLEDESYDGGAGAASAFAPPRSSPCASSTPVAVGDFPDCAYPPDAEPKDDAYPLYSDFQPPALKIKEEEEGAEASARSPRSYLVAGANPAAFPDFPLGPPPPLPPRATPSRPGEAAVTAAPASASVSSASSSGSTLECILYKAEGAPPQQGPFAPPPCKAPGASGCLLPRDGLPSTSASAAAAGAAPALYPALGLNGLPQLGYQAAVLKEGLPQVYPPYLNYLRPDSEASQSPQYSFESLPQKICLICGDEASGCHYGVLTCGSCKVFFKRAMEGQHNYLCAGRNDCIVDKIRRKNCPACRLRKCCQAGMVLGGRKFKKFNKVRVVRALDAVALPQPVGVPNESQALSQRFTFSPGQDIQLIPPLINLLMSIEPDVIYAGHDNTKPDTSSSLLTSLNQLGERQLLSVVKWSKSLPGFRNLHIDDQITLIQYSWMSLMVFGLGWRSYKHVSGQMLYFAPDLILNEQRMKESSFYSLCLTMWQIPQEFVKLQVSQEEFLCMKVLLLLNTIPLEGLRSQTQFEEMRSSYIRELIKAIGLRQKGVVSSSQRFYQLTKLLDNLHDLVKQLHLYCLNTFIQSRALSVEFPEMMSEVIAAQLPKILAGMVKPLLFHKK

[10] = molecular target: T4, Androgen receptor (Homo sapiens, UniProt P10275); experiment: Binding affinity to androgen receptor
T4 sequence (P10275 whole entry): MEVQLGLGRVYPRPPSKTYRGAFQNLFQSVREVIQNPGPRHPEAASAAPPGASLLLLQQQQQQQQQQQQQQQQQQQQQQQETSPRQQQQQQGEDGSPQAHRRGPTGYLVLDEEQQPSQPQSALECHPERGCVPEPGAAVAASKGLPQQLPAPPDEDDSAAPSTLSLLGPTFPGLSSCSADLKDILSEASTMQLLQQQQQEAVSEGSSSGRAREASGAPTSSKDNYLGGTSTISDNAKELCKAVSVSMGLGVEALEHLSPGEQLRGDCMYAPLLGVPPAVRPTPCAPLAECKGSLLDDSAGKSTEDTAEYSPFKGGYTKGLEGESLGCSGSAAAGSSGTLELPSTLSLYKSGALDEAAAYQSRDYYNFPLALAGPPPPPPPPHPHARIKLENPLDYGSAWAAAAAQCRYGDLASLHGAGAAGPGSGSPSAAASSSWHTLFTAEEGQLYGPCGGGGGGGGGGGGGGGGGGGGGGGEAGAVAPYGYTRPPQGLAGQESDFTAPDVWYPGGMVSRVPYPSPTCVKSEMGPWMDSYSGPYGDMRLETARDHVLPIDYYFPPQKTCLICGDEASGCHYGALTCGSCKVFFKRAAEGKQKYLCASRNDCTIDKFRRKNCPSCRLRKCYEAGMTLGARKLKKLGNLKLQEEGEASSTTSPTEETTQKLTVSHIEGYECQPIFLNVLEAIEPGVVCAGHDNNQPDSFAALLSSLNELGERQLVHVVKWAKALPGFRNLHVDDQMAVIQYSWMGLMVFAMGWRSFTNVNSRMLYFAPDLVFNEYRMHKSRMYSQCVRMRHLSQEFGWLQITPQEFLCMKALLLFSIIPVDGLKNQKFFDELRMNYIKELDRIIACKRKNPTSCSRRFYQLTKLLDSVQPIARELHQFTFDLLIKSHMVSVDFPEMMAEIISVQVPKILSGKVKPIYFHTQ

[11] = molecular target: T1, Glucocorticoid receptor; experiment: Agonist activity at glucocorticoid receptor in human HepG2 cells co-transfected with GRE assessed as GRE activation by luciferase reporter gene assay; assay type: functional, cell-based

| SMILES | Ki [1] [nM] | IC50 [2] [nM] | Activity [3] [%] | Activity [5] [%] | other results |
| --- | --- | --- | --- | --- | --- |
| C[C@]12C=CC(=O)C=C1CC[C@@H]1[C@@H]2[C@@H](O)C[C@@]2(C)[C@H]1CC[C@]2(O)C(=O)CO | – | – | – | – | Activity [4]: 129% |
| C[C@H]1c2c(cc(F)c(-c3cccc4cc[nH]c34)c2F)NC(C)(C)[C@@H]1O | – | – | – | 90 | Activity [4]: 138%; Activity [6]: 75%; EC50 [7]: 53 nM |
| Cc1c[nH]c2c(-c3c(F)cc4c(c3F)/C(=N/OC(C)(C)C(=O)O)CC(C)(C)N4)cccc12 | 2700 | – | – | – | – |
| CO/N=C1\CC(C)(C)Nc2cc(F)c(-c3cccc4cc[nH]c34)c(F)c21 | 7 | 42 | 83 | – | – |
| CC1(C)C/C(=N\O)c2c(cc(F)c(-c3cccc4cc[nH]c34)c2F)N1 | 370 | – | – | – | – |
| Cc1c[nH]c2c(-c3c(F)cc4c(c3F)/C(=N/Oc3ccccc3)CC(C)(C)N4)cccc12 | 31 | 51 | 67 | – | – |
| CC1(C)C/C(=N\OC(C)(C)C)c2c(cc(F)c(-c3cccc4cc[nH]c34)c2F)N1 | 7 | 3.5 | 93 | 57 | IC50 [8]: 40 nM |

Further molecules by falling Ki [1], results first:

| Ki [1] [nM] | IC50 [2] [nM] | Activity [3] [%] | Activity [5] [%] | SMILES | other results |
| --- | --- | --- | --- | --- | --- |
| 5.8 | 8.8 | 74 | – | Cc1c[nH]c2c(-c3c(F)cc4c(c3F)/C(=N/OCc3ccccc3)CC(C)(C)N4)cccc12 | – |
| 1.5 | 22 | 87 | – | COC(=O)C(C)(C)O/N=C1\CC(C)(C)Nc2cc(F)c(-c3cccc4c(C)c[nH]c34)c(F)c21 | – |
| 0.7 | 14 | 100 | 99 | CO/N=C1/c2c(cc(F)c(-c3cccc4c(Cl)c[nH]c34)c2F)NC(C)(C)C1O (stereo not drawn) | IC50 [8]: 22 nM |
| 0.6 | 2.6 | 98 | 97 | CCO/N=C1/c2c(cc(F)c(-c3cccc4c(C)c[nH]c34)c2F)NC(C)(C)C1O (racemic) | Ki [9]: 27 nM; Ki [10]: 430 nM; EC50 [11]: 1.5 nM; Activity [4]: 138%; IC50 [8]: 5.2 nM; Activity [6]: 61%; EC50 [7]: 115 nM |
| 0.4 | 6.9 | 91 | – | CCO/N=C1\CC(C)(C)Nc2cc(F)c(-c3cccc4cc[nH]c34)c(F)c21 | – |
